The target in assay [1] is T1, CRAC channel (endogenous SOC in HEK293 cells) (Homo sapiens, UniProt Q96D31).
T1 construct: host or cells: HEK293
Briefly: HEK Calcium Influx Assay (FLIPR). The assay is classed as cell-based. The conditions noted are these: 10 μM compound, thapsigargin store depletion, Ca2+ signal 9.5-10 min post-administration, read-out: % inhib. [@ 10 μM] FLIPR. The method, then: Compounds of the invention have been tested for their effects on CRAC channels according to the following or similar procedures.
The effect of compounds of the invention on intracellular [Ca^2+] was tested in the HEK293 cell line (ECACC).
HEK293 cells were cultured in DMEM/F12/Glutamax (Gibco) containing 10% FCS (Gibco), and maintained at 37° C., 5% CO2. Cell were split twice a week [3·10^6 (Mon-Thu) and 1·10^6 (Thu-Mon) cells/50 ml medium in T-175 ZK culture flasks, respectively]. 24 hours pre-experiment, cells were seeded on 96 well plates (Poly-D-Lysine 96well Black/Clear Plate, BD Biocoat REF 356640) at a density of 40,000 cells/well in DMEM/F12 (Gibco) containing 10% FCS (Gibco), and maintained at 37° C., 5% CO2.
Prior to store-depletion, cell culture medium was removed and cells were loaded with the a Ca^2+-sensitive fluorescent dye comprised within the Calcium-4-assay kit (Molecular Devices) in nominally Ca^2+-free HBS buffer (140 mM NaCl, 4 mM KCl, 0.2 mM MgCl2, 11 mM D-glucose, and 10 mM HEPES, pH 7.4) according to manufacturer's instruction for 60 min at 37° C., 5% CO2.
Passive depletion of intracellular Ca^2+-stores was then triggered by employing the SERCA inhibitor thapsigargin (2 μM final) for 10 min in the dark (rt). To prevent immediate Ca^2+-entry via the activated Store-operated channels (SOCs), cells were maintained in Ca^2+-free HBS buffer comprising 100 μM EGTA during store-depletion.
Intracellular changes in [Ca^2+] were subsequently monitored with the FLIPR device (Molecular Devices). In brief, baseline imaging post-store depletion was allowed for 1 min before adjusting the extracellular buffer to 3 mM CaCl2. Increases in intracellular [Ca^2+] due to pre-activated SOC channels were monitored for 15 min until intracellular Ca^2+ levels had declined into a steady-state. Finally, compounds were administered and Ca^2+ signals were recorded for additional 10 min.
Inhibition of endogenous SOC in HEK293 cells was quantified employing the average Ca^2+ signal measured from 9.5-10 min post-administration. Zero percent inhibition (MAX) was defined as the Ca^2+ signal recorded from wells to which DMSO-only had been added instead of compound. Hundred percent inhibition (MIN) was defined as the signal obtained from wells in which cells haven't been treated with TG prior to Ca^2+ addition and to which DMSO-only had been added instead of compound. For routine IC50 determinations of compounds, 8 concentrations of a serial dilution (1:3.16) were tested, starting off from 10 μM. Reliable IC50's could consequently be determined only, if they were at least sub 2.5-3 μM.

Assay [2] relates to Interleukin-2 (IL-2) production/release in Jurkat T cell line clone E6-1. Briefly: Jurkat IL-2 Production Assay. The assay is classed as cell-based. Conditions: Homo sapiens; Jurkat T cells stimulated with 15 μg/ml PHA for 22 hours; IL-2 in supernatant (AlphaLisa). Here is the method:
Jurkat IL-2 Production Assay
The effect of compounds of the invention on Interleukin-2 (IL-2) production/release was tested in the Jurkat T cell line (ECACC) clone E6-1.
Jurkat T cells were cultured in DMEM/F12/Glutamax (Gibco) containing 10% FCS (Gibco), and maintained at 37° C., 5% CO2. Cells were split twice a week [5·10^6 (Mon-Thu) and 1·10^7 (Thu-Mon) cells/50 ml medium in T-175 ZK culture flasks, respectively].
Prior to experiment, cells were seeded on 96 well plates (Cellstar 96 Well; Cat No. 655180, Greiner bio-one) at a density of 5·10^5 cells/well in DMEM/F12/Glutamax (Gibco) containing 10% FCS (Gibco), and incubated for 60 min at 37° C., 5% CO2. Subsequently, compounds were added and cells were allowed to incubate for 30 min at 37° C., 5% CO2. Cells were then stimulated with 15 μg/ml Phyto-hemagglutinin (PHA; Sigma) for 22 hours at 37° C., 5% CO2.
Before sampling of the supernatants, cells were spun down (200*g/5 min/RT). The amount of IL-2 released into the supernatant was quantified with the human IL-2 AlphaLisa kit (Perkin Elmer) according to manufacturer's instructions. Luminescence proximity measurements were carried out in the Synergy H4 reader (BioTek) employing the fluorescence setting of the reader (ex: 680/30 nm; em: 620/40 nm).
Inhibition of IL-Production/Release in/from Jurkat T Cells Cells was Quantified as Follows:
Zero percent inhibition (MAX) was defined as the [IL-2] determined in supernatants derived from cells to which PHA & DMSO-only had been added instead of compound. Hundred percent inhibition (MIN) was defined as the [IL-2] determined in supernatants derived from cells that had been pre-treated with 1 μM CyclosporineA (Sigma) before the addition of 15 μg/ml PHA.
For routine IC50 determinations of compounds, 8 concentrations of a serial dilution (1:3.16) were tested, starting off from 10 μM.

SMILES strings stand for the structures.

T1 sequence (Q96D31 whole entry): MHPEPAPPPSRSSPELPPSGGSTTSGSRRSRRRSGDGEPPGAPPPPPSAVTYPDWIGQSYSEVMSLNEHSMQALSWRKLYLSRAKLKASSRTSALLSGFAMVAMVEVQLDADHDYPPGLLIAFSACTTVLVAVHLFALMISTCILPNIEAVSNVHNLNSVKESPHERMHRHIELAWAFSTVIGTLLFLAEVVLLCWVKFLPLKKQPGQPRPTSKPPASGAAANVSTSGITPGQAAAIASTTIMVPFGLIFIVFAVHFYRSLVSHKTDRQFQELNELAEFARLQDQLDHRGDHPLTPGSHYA

On to `Cc1ccc(-c2nccs2)cc1-c1cc(C(=O)Nc2ccncc2F)nn1C` [Example 1, N-(3-Fluoro-pyridin-4-yl)-1-methyl-5-(2-methyl-5-thiazol-2-yl-phenyl)-1H-pyrazole-3-carboxylic acid amide], for which the inhibition at 10 µM in assay [1] was > 70%. The IC50 (commonly the point on the concentration scale where inhibition reaches its midpoint) in assay [2] was in the range of 1 to 5 µM. For `Cc1ccc(-c2ncco2)cc1-c1cc(C(=O)Nc2ccncc2F)nn1C` [Example 2, N-(3-Fluoro-pyridin-4-yl)-1-methyl-5-(2-methyl-5-oxazol-2-yl-phenyl)-1H-pyrazole-3-carboxylic acid amide], in assay [1], the inhibition at 10 µM lay in the range of 50 to 70%. Consider `Cc1ccc(-c2nccs2)cc1-c1cc(C(=O)Nc2c(F)cccc2F)nn1C` [Example 3, N-(2,6-Difluoro-phenyl)-1-methyl-5-(2-methyl-5-thiazol-2-yl-phenyl)-1H-pyrazole-3-carboxylic acid amide], for which the inhibition at 10 µM in assay [1] was < 50%. In assay [2], the IC50 is < 0.5 µM. Turning to `COc1ccc(NC(=O)c2cc(-c3cc(-c4nccs4)ccc3C)n(C)n2)cc1` [Example 4, N-(4-Methoxyphenyl)-1-methyl-5-(2-methyl-5-thiazol-2-yl-phenyl)-1H-pyrazole-3-carboxylic acid amide], in assay [1], the inhibition at 10 µM lay in the range of 50 to 70%. Also, in assay [2], the IC50 lay within 1 to 5 µM. Take `Cc1ccc(-c2nccs2)cc1-c1cc(C(=O)Nc2ccc(F)cc2)nn1C` [Example 5, N-(4-Fluorophenyl)-1-methyl-5-(2-methyl-5-thiazol-2-yl-phenyl)-1H-pyrazole-3-carboxylic acid amide]: the inhibition at 10 µM in assay [1] lay in the range of 50 to 70%. For the same compound, the IC50 in assay [2] was 1 to 5 µM. With `Cc1cnccc1NC(=O)c1cc(-c2cc(-c3nccs3)ccc2C)n(C)n1` [Example 6, 1-Methyl-N-(3-methyl-pyridin-4-yl)-5-(2-methyl-5-thiazol-2-yl-phenyl)-1H-pyrazole-3-carboxylic acid amide], the inhibition at 10 µM in assay [1] lay within 50 to 70%. In assay [2], the 50% inhibitory concentration (IC50) is 1 to 5 µM. With `COc1ccc(-c2nccs2)cc1-c1cc(C(=O)Nc2ccncc2F)nn1C` [Example 7, N-(3-Fluoro-pyridin-4-yl)-5-(2-methoxy-5-thiazol-2-yl-phenyl)-1-methyl-1H-pyrazole-3-carboxylic acid amide], in assay [1], the inhibition at 10 µM is < 50%. The IC50 in assay [2] was 0.5 to 1 µM. As for `COc1ccc(-c2nccs2)cc1-c1cc(C(=O)Nc2c(F)cccc2F)nn1C` [Example 8, N-(2,6-Difluoro-phenyl)-5-(2-methoxy-5-thiazol-2-yl-phenyl)-1-methyl-1H-pyrazole-3-carboxylic acid amide], the inhibition at 10 µM in assay [1] was > 70%. Further, the IC50 in assay [2] lay within 0.5 to 1 µM. In the same order, the values of `Cn1nc(C(=O)Nc2ccncc2F)cc1-c1cc(-c2nccs2)ccc1Cl` [Example 9, 5-(2-Chloro-5-thiazol-2-yl-phenyl)-N-(3-fluoro-pyridin-4-yl)-1-methyl-1H-pyrazole-3-carboxylic acid amide] are 50 to 70% and 1 to 5 µM. Regarding `Cn1nc(C(=O)Nc2c(F)cccc2F)cc1-c1cc(-c2nccs2)ccc1Cl` [Example 10, 5-(2-Chloro-5-thiazol-2-yl-phenyl)-N-(2,6-difluoro-phenyl)-1-methyl-1H-pyrazole-3-carboxylic acid amide], the inhibition at 10 µM in assay [1] was < 50%. In addition, the half-inhibitory concentration (IC50) in assay [2] was < 0.5 µM. For `Cc1ccc(-c2ccncc2)cc1-c1cc(C(=O)Nc2ccncc2F)nn1C` [Example 11, N-(3-Fluoro-pyridin-4-yl)-1-methyl-5-(2-methyl-5-pyridin-4-yl-phenyl)-1H-pyrazole-3-carboxylic acid amide], the inhibition at 10 µM in assay [1] is > 70%. The IC50 in assay [2] lay within 1 to 5 µM. Take `Cc1ccc(-c2ccncc2)cc1-c1cc(C(=O)Nc2c(F)cccc2F)nn1C` [Example 12, N-(2,6-Difluoro-phenyl)-1-methyl-5-(2-methyl-5-pyridin-4-yl-phenyl)-1H-pyrazole-3-carboxylic acid amide]: the inhibition at 10 µM in assay [1] was > 70%. Also, the IC50 in assay [2] was < 0.5 µM. For the compound `Cc1ccc(-c2cncnc2)cc1-c1cc(C(=O)Nc2c(F)cccc2F)nn1C` [Example 13, N-(2,6-Difluoro-phenyl)-1-methyl-5-(2-methyl-5-pyrimidin-5-yl-phenyl)-1H-pyrazole-3-carboxylic acid amide], the inhibition at 10 µM in assay [1] was < 50%. Further, the IC50 in assay [2] was < 0.5 µM. In the same order, the values of `Cn1nc(C(=O)Nc2c(F)cccc2F)cc1-c1cccc(-c2nccs2)c1` [Example 14, N-(2,6-Difluoro-phenyl)-1-methyl-5-(3-thiazol-2-yl-phenyl)-1H-pyrazole-3-carboxylic acid amide] are > 70% and < 0.5 µM. In the same order, the values of `COc1ccc(C2CC2)cc1-c1cc(C(=O)Nc2ccncc2F)nn1C` [Example 15, 5-(5-Cyclopropyl-2-methoxy-phenyl)-N-(3-fluoro-pyridin-4-yl)-1-methyl-1H-pyrazole-3-carboxylic acid amide] are > 70% and 1 to 5 µM. Consider `COc1ccc(C2CC2)cc1-c1cc(C(=O)Nc2c(F)cccc2F)nn1C` [Example 16, 5-(5-Cyclopropyl-2-methoxy-phenyl)-N-(2,6-difluoro-phenyl)-1-methyl-1H-pyrazole-3-carboxylic acid amide], for which the inhibition at 10 µM in assay [1] is > 70%. In addition, the IC50 in assay [2] is < 0.5 µM. `Cc1cnc(C2CC2)nc1-c1cc(C(=O)Nc2c(F)cccc2F)nn1C` [Example 17, 5-(2-Cyclopropyl-5-methyl-pyrimidin-4-yl)-N-(2,6-difluoro-phenyl)-1-methyl-1H-pyrazole-3-carboxylic acid amide]: the inhibition at 10 µM in assay [1] lay in the range of 50 to 70%. For the compound `Cc1ccc(-c2ncco2)cc1-c1cc(C(=O)Nc2c(F)cccc2F)nn1C` [Example 18, N-(2,6-Difluoro-phenyl)-1-methyl-5-(2-methyl-5-oxazol-2-yl-phenyl)-1H-pyrazole-3-carboxylic acid amide], the inhibition at 10 µM in assay [1] was < 50%. Also, the IC50 in assay [2] was 0.5 to 1 µM. Take `Cc1noc(-c2ccc(C)c(-c3cc(C(=O)Nc4c(F)cccc4F)nn3C)c2)n1` [Example 19, N-(2,6-Difluoro-phenyl)-1-methyl-5-[2-methyl-5-(3-methyl-[1,2,4]oxadiazol-5-yl)-phenyl]-1H-pyrazole-3-carboxylic acid amide]: the inhibition at 10 µM in assay [1] was < 50%. Further, in assay [2], the IC50 was in the range of 1 to 5 µM. For `Cc1ccc(C2CCOCC2)cc1-c1cc(C(=O)Nc2ccncc2F)nn1C` [Example 21, N-(3-Fluoro-pyridin-4-yl)-1-methyl-5-(2-methyl-5-tetrahydro-pyran-4-yl-phenyl)-1H-pyrazole-3-carboxylic acid amide], the inhibition at 10 µM in assay [1] lay within 50 to 70%.

For `Cc1c(C(=O)Nc2ccncc2F)nn(C)c1-c1cccc(-c2nccs2)c1` [Example 29, N-(3-Fluoro-pyridin-4-yl)-1,4-dimethyl-5-(3-thiazol-2-yl-phenyl)-1H-pyrazole-3-carboxylic acid amide], the inhibition at 10 µM in assay [1] is > 70%.

(Values after US9206136B2, “Pyrazolyl-based carboxamides I” (Grünenthal GmbH, priority 2013, dated 2015).)
